Experimental data as given in patent publication US20170050957A1, “4-AMINO-6-(HETEROCYCLIC)PICOLINATES AND 6-AMINO-2-(HETEROCYCLIC)PYRIMIDINE-4-CARBOXYLATES AND THEIR USE AS HERBICIDES” (Dow AgroSciences LLC, priority 2013, published 2017).
Like-named read-outs stand apart in the source and are kept apart here.

Experiments:
[1] = system: Key Broadleaf Weed and Crop Species; experiment: Post-emergent Test II herbicidal activity (Table 15); type: in vivo; conditions: post-emergence, 336 h, 14 d; for pest or weed control at 35 g/ha: 35 g ai/ha; for pest or weed control at 70 g/ha: 70 g ai/ha; for pest or weed control at 140 g/ha: 140 g ai/ha
How it was run: (§1)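 Plants grown in greenhouse (~15 h photoperiod, 23-29 °C day, 22-28 °C night) to first or second true leaf stage, then sprayed post-emergence at 187 L/ha with a high rate and 1/2×, 1/4×, 1/8× and 1/16× dilutions. Injury scored visually after 14 d, 0-100% versus untreated plants.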

[2] = system: Key Grass and Sedge Weeds as well as Grass Crops; experiment: Post-emergent Test II herbicidal activity (Table 16); type: in vivo; conditions: post-emergence, 336 h; for pest or weed control at 35 g/ha: 35 g ai/ha; for pest or weed control at 70 g/ha: 70 g ai/ha; for pest or weed control at 140 g/ha: 140 g ai/ha
How it was run: as §1

[3] = Abutilon theophrasti, velvetleaf (Abutilon theophrasti), read-out: Visual Growth Reduction (%) 14 Days After Application, ABUTH
[4] = Amaranthus retroflexus, redroot pigweed (Amaranthus retroflexus), read-out: Visual Growth Reduction (%) 14 Days After Application, AMARE
[5] = Brassica napus, oilseed rape, canola (Brassica napus), read-out: Visual Growth Reduction (%) 14 Days After Application, BRSNN
[6] = Chenopodium album, lambsquarters (Chenopodium album), read-out: Visual Growth Reduction (%) 14 Days After Application, CHEAL
[7] = Euphorbia heterophylla, wild poinsettia (Euphorbia heterophylla), read-out: Visual Growth Reduction (%) 14 Days After Application, EPHHL
[8] = Helianthus annuus, sunflower (Helianthus annuus), read-out: Visual Growth Reduction (%) 14 Days After Application, HELAN
[9] = Cyperus esculentus, yellow nutsedge (Cyperus esculentus), 14 days after application, read-out: Visual Growth Reduction (%) 14 Days After Application CYPES
[10] = Echinochloa crus-galli, barnyardgrass (Echinochloa crus-galli), 14 days after application, read-out: Visual Growth Reduction (%) 14 Days After Application ECHCG
[11] = Oryza sativa, rice (Oryza sativa), 14 days after application, read-out: Visual Growth Reduction (%) 14 Days After Application ORYSA
[12] = Setaria faberi, giant foxtail (Setaria faberi), 14 days after application, read-out: Visual Growth Reduction (%) 14 Days After Application SETFA
[13] = Triticum aestivum, wheat, spring (Triticum aestivum), 14 days after application, read-out: Visual Growth Reduction (%) 14 Days After Application TRZAS
[14] = Zea mays, maize, corn (Zea mays), 14 days after application, read-out: Visual Growth Reduction (%) 14 Days After Application ZEAMX
[15] = Cyperus esculentus, yellow nutsedge (Cyperus esculentus), 14 d, read-out: Visual Growth Reduction (%) 14 Days After Application, CYPES
[16] = Echinochloa crus-galli, barnyardgrass (Echinochloa crus-galli), 14 d, read-out: Visual Growth Reduction (%) 14 Days After Application, ECHCG
[17] = Oryza sativa, rice (Oryza sativa), 14 d, read-out: Visual Growth Reduction (%) 14 Days After Application, ORYSA
[18] = Setaria faberi, giant foxtail (Setaria faberi), 14 d, read-out: Visual Growth Reduction (%) 14 Days After Application, SETFA
[19] = Triticum aestivum, wheat, spring (Triticum aestivum), 14 d, read-out: Visual Growth Reduction (%) 14 Days After Application, TRZAS
[20] = Zea mays, maize, corn (Zea mays), 14 d, read-out: Visual Growth Reduction (%) 14 Days After Application, ZEAMX

melting point [°C] | Compound | pest or weed control at 35 g/ha [1, 3] [%] | pest or weed control at 70 g/ha [1, 3] [%] | pest or weed control at 140 g/ha [1, 3] [%] | pest or weed control at 35 g/ha [1, 4] [%] | pest or weed control at 70 g/ha [1, 4] [%] | pest or weed control at 140 g/ha [1, 4] [%] | pest or weed control at 35 g/ha [1, 5] [%] | pest or weed control at 70 g/ha [1, 5] [%] | pest or weed control at 140 g/ha [1, 5] [%] | pest or weed control at 35 g/ha [1, 6] [%] | pest or weed control at 70 g/ha [1, 6] [%] | pest or weed control at 140 g/ha [1, 6] [%] | pest or weed control at 35 g/ha [1, 7] [%] | pest or weed control at 70 g/ha [1, 7] [%] | pest or weed control at 140 g/ha [1, 7] [%] | pest or weed control at 35 g/ha [1, 8] [%] | pest or weed control at 70 g/ha [1, 8] [%] | pest or weed control at 140 g/ha [1, 8] [%] | other results
137 to 139 | COc1c(N)nc(-c2ccc3sccc3c2)nc1C(=O)O [Compound 3.09] | 0 to 29 | 0 to 29 | 45 to 59 | 30 to 44 | 75 to 84 | 85 to 94 | 45 to 59 | 85 to 94 | 95 to 100 | 85 to 94 | 85 to 94 | 95 to 100 | 95 to 100 | 95 to 100 | 95 to 100 | 60 to 74 | 75 to 84 | 85 to 94 | pest or weed control at 35 g/ha [2, 9]: 0 to 29%; pest or weed control at 70 g/ha [2, 9]: 0 to 29%; pest or weed control at 140 g/ha [2, 9]: 0 to 29%; pest or weed control at 35 g/ha [2, 10]: 85 to 94%; pest or weed control at 70 g/ha [2, 10]: 85 to 94%; pest or weed control at 140 g/ha [2, 10]: 85 to 94%; pest or weed control at 35 g/ha [2, 11]: 0 to 29%; pest or weed control at 70 g/ha [2, 11]: 0 to 29%; pest or weed control at 140 g/ha [2, 11]: 0 to 29%; pest or weed control at 35 g/ha [2, 12]: 0 to 29%; pest or weed control at 70 g/ha [2, 12]: 0 to 29%; pest or weed control at 140 g/ha [2, 12]: 0 to 29%; pest or weed control at 35 g/ha [2, 13]: 60 to 74%; pest or weed control at 70 g/ha [2, 13]: 75 to 84%; pest or weed control at 140 g/ha [2, 13]: 85 to 94%; pest or weed control at 35 g/ha [2, 14]: 60 to 74%; pest or weed control at 70 g/ha [2, 14]: 75 to 84%; pest or weed control at 140 g/ha [2, 14]: 85 to 94%
178 | COC(=O)c1nc(-c2ccc3ccoc3c2F)nc(N)c1OC [Compound 2.13] | 95 to 100 | 95 to 100 | 95 to 100 | 60 to 74 | 95 to 100 | 95 to 100 | 95 to 100 | 95 to 100 | 95 to 100 | 95 to 100 | 95 to 100 | 95 to 100 | 95 to 100 | 95 to 100 | 95 to 100 | 75 to 84 | 85 to 94 | 95 to 100 | pest or weed control at 35 g/ha [2, 15]: 30 to 44%; pest or weed control at 70 g/ha [2, 15]: 85 to 94%; pest or weed control at 140 g/ha [2, 15]: 85 to 94%; pest or weed control at 35 g/ha [2, 16]: 75 to 84%; pest or weed control at 70 g/ha [2, 16]: 95 to 100%; pest or weed control at 140 g/ha [2, 16]: 95 to 100%; pest or weed control at 35 g/ha [2, 17]: 0 to 29%; pest or weed control at 70 g/ha [2, 17]: 30 to 44%; pest or weed control at 140 g/ha [2, 17]: 30 to 44%; pest or weed control at 35 g/ha [2, 18]: 0 to 29%; pest or weed control at 70 g/ha [2, 18]: 45 to 59%; pest or weed control at 140 g/ha [2, 18]: 60 to 74%; pest or weed control at 35 g/ha [2, 19]: 0 to 29%; pest or weed control at 70 g/ha [2, 19]: 45 to 59%; pest or weed control at 140 g/ha [2, 19]: 45 to 59%; pest or weed control at 35 g/ha [2, 20]: 0 to 29%; pest or weed control at 70 g/ha [2, 20]: 30 to 44%; pest or weed control at 140 g/ha [2, 20]: 45 to 59%
